Laboratory results as given in article PMC13147306 (The Febs Journal, 2025).

What was measured:
[1] = target: T1, DnrK (Streptomyces peucetius, UniProt Q06528); assay: O-methylation assay, LC-MS/HPLC; type: biochemical; conditions: 0.5 mM substrate, 2 mM SAM, 5 μM enzyme, HEPES-NaOH pH 8, 37 °C, 24 h
T1 sequence (Q06528 1-356): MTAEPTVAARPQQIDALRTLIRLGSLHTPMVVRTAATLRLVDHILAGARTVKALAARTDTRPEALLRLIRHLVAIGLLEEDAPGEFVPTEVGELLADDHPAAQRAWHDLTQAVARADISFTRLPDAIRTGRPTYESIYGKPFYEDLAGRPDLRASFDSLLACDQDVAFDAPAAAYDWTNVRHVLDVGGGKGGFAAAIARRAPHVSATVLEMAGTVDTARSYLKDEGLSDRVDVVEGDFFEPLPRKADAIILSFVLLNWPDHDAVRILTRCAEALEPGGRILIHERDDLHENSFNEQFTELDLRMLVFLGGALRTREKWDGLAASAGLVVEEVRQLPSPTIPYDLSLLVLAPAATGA

[2] = tested on: AthePKS; assay: steady-state kinetics, HPLC of product 1b; type: biochemical; conditions: read-out: apparent Km; 400 μM malonyl-CoA, 50 mM Tris/HCl pH 7.5, 37 °C

Row | Km [2] | SMILES | O-methylation assay, LC-MS/HPLC [1]
1 | – | Cn1c(=O)cc(O)c2ccccc21 [1b, 4-hydroxy-1-methyl-2-quinolone] | DnrK was still the best‐performing enzyme
2 | 42.6 µM | CNc1ccccc1C(=O)SCCNC(=O)CCNC(=O)[C@H](O)C(C)(C)COP(=O)(O)OP(=O)(O)OC[C@H]1O[C@@H](n2cnc3c(N)ncnc32)[C@H](O)[C@@H]1OP(=O)(O)O [1a, N-methylanthraniloyl-CoA] | –
3 | – | O=c1cc(O)c2ccccc2[nH]1 [2b] | it was also active with the other heterocycles 2b, 6b, and 8b
